The structures appear in SMILES notation. Numbered stars: 1 amine (or outer) side, 2 acyl side, 3 side chain; on linkers, the order of the positions; unused ones are H or OH. Bridge positions count the residues as written; N and C are the ends. Square brackets hold non-standard residues; d marks the D form. Side chains are listed from the residue outwards. Peptide text beside a SMILES is read from it. * marks the point of attachment. C18 diacid = O=C(O)CCCCCCCCCCCCCCCCC(=O)*; γGlu = O=C(O)[C@H](CCC(=O)[*:2])N[*:1]; Aib = CC(C)(N)C(=O)O

Assay [1] has as its target T1, human calcitonin receptor (hCTR) (Homo sapiens, UniProt P30988).
T1 construct: expressed in transfected cells
T1 sequence (P30988 25-474): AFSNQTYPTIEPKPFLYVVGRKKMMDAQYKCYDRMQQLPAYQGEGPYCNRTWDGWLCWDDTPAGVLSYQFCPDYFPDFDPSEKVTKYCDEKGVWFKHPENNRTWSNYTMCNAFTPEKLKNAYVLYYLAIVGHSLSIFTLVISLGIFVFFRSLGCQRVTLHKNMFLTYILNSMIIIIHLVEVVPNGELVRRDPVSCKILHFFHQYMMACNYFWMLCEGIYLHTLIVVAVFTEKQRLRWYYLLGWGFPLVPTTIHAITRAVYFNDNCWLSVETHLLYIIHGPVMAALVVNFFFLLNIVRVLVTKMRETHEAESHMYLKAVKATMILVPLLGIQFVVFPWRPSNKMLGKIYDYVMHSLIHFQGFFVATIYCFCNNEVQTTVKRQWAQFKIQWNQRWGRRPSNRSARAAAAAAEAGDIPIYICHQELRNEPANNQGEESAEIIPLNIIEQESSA
Put plainly: cAMP production in 1321N1 cells with stable recombinant expression of human calcitonin receptor (hCTR). The format is cell-based. To be noted: cAMP, 1321N1 cells, assay buffer with 0.1% BSA; read-out: EC50 (pM) hCTR. Summed up:
(§1)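 Receptor-expressing cells (human receptors in 1321N1, rat receptors in HEK) incubated 30 min at room temperature with peptide in HBSS/HEPES pH 7.4, 0.1% BSA, 0.5 mM IBMX. cAMP read by HTRF; EC50 from 4-parameter fit as % of maximal amylin or calcitonin response.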
(In general: cAMP levels reflect the balance of adenylyl cyclase and phosphodiesterase activity.)

In assay [2] the target is T2, human amylin receptor (calcitonin receptor co-expressed with receptor activity modifying protein, RAMP3) (hAMYR3) (Homo sapiens, UniProt O60896+P30988).
T2 construct: expressed in transfected cells
T2 sequence (P30988 25-474): T1 sequence (P30988 25-474)
T2 sequence (O60896 24-148 partner): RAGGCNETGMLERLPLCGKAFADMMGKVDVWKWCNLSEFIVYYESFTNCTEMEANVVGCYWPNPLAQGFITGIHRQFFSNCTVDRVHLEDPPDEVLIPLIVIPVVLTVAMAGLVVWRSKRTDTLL
Put plainly: cAMP production in 1321N1 cells with stable recombinant expression of human amylin receptor (hAMYR3). In kind it is cell-based. To be noted: for Ratio (selectivity hAMYR vs hCTR, ratio of EC50 values at the two receptors): EC50 hCTR / EC50 hAMYR3; for EC50: cAMP, 1321N1 cells, assay buffer with 0.1% BSA, read-out: EC50 (pM) hAMYR3. The method, boiled down:
as §1

By EC50 is commonly meant the concentration needed to bring the measured effect to its halfway point. For the compound `CC[C@H](C)[C@H](NC(=O)[C@@H]1CCCN1C(=O)CNC(=O)[C@H](Cc1ccccc1)NC(=O)[C@H](CC(N)=O)NC(=O)C(C)(C)NC(=O)[C@H](CO)NC(=O)[C@H](CO)NC(=O)[C@H](Cc1c[nH]cn1)NC(=O)[C@@H](NC(=O)[C@H](CC(C)C)NC(=O)[C@H](Cc1ccccc1)NC(=O)[C@H](Cc1c[nH]cn1)NC(=O)[C@H](C)NC(=O)[C@H](CC(C)C)NC(=O)[C@H](CCCNC(=N)N)NC(=O)[C@H](CCC(N)=O)NC(=O)[C@@H](NC(=O)[C@H](C)NC(=O)[C@@H]1CSSC[C@H](NC(=O)[C@H](CCCCN)NC(=O)[C@@H](N)CCCCNC(=O)CC[C@H](NC(=O)CCCCCCCCCCCCCCCCC(=O)O)C(=O)O)C(=O)N[C@@H](CC(N)=O)C(=O)N[C@@H]([C@@H](C)O)C(=O)N[C@@H](C)C(=O)N[C@@H]([C@@H](C)O)C(=O)N1)[C@@H](C)O)C(C)C)C(=O)N[C@@H](CC(C)C)C(=O)N1CCC[C@H]1C(=O)N1CCC[C@H]1C(=O)N[C@H](C(=O)N[C@@H](CC(N)=O)C(=O)N[C@H](C(=O)NCC(=O)N[C@@H](CO)C(=O)N[C@@H](CCC(=O)O)C(=O)N[C@H](C(=O)N[C@@H](Cc1ccc(O)cc1)C(N)=O)[C@@H](C)O)C(C)C)[C@@H](C)O` [Peptide 47, K(γE-C18diacid)K[CNTATC]ATQRLAHFLVHSS(Aib)NFGPILPPTNVGSETY-amide] (H-K([γGlu-C18 diacid])KCNTATCATQRLAHFLVHSS[Aib]NFGPILPPTNVGSETY-NH2; disulfide 3-8; N-terminus assumed), the values for the half-maximal effective concentration (EC50) in assay [1] and in assay [2] were 468 pM and 218 pM, respectively. For the same compound, the “Ratio (selectivity hAMYR vs hCTR, ratio of EC50 values at the two receptors)” value in assay [2] was 2.
In the case of `CC[C@H](C)[C@H](NC(=O)[C@@H]1CCCN1C(=O)CNC(=O)[C@H](Cc1ccccc1)NC(=O)[C@H](CC(N)=O)NC(=O)C(C)(C)NC(=O)[C@H](CO)NC(=O)[C@H](CO)NC(=O)[C@H](Cc1c[nH]cn1)NC(=O)[C@@H](NC(=O)[C@H](CC(C)C)NC(=O)[C@H](Cc1ccccc1)NC(=O)[C@H](CC(N)=O)NC(=O)[C@H](C)NC(=O)[C@H](CC(C)C)NC(=O)[C@H](CCCNC(=N)N)NC(=O)[C@H](CCC(N)=O)NC(=O)[C@@H](NC(=O)[C@H](C)NC(=O)[C@@H]1CSSC[C@H](NC(=O)[C@@H](N)CCCCNC(=O)CC[C@H](NC(=O)CC[C@H](NC(=O)CCCCCCCCCCCCCCCCC(=O)O)C(=O)O)C(=O)O)C(=O)N[C@@H](CC(N)=O)C(=O)N[C@@H]([C@@H](C)O)C(=O)N[C@@H](C)C(=O)N[C@@H]([C@@H](C)O)C(=O)N1)[C@@H](C)O)C(C)C)C(=O)N[C@@H](CC(C)C)C(=O)N1CCC[C@H]1C(=O)N1CCC[C@H]1C(=O)N[C@H](C(=O)N[C@@H](CCC(=O)O)C(=O)N[C@H](C(=O)NCC(=O)N[C@@H](CO)C(=O)N[C@@H](CC(N)=O)C(=O)N[C@H](C(=O)N[C@@H](Cc1ccc(O)cc1)C(N)=O)[C@@H](C)O)C(C)C)[C@@H](C)O` [Peptide 49, K(γE-γE-C18diacid)[CNTATC]ATQRLANFLVHSS(Aib)NFGPILPPTEVGSNTY-amide] (H-K([γGlu-γGlu-C18 diacid])CNTATCATQRLANFLVHSS[Aib]NFGPILPPTEVGSNTY-NH2; disulfide 2-7), the EC50 in assay [1] came out at 4140 pM. In addition, in assay [2], the “Ratio (selectivity hAMYR vs hCTR, ratio of EC50 values at the two receptors)” value stood at 12 and the EC50 is 334 pM.
Turning to `CC[C@H](C)[C@H](NC(=O)[C@@H]1CCCN1C(=O)CNC(=O)[C@H](Cc1ccccc1)NC(=O)[C@H](CC(N)=O)NC(=O)C(C)(C)NC(=O)[C@H](CO)NC(=O)[C@H](CO)NC(=O)[C@H](Cc1c[nH]cn1)NC(=O)[C@H](CCCNC(=N)N)NC(=O)[C@H](CC(C)C)NC(=O)[C@H](Cc1ccccc1)NC(=O)[C@H](CC(N)=O)NC(=O)[C@H](C)NC(=O)[C@H](CC(C)C)NC(=O)[C@H](CCCNC(=N)N)NC(=O)[C@H](CCC(N)=O)NC(=O)[C@@H](NC(=O)[C@H](C)NC(=O)[C@@H]1CSSC[C@H](NC(=O)[C@@H](N)CCCCNC(=O)CC[C@H](NC(=O)CC[C@H](NC(=O)CCCCCCCCCCCCCCCCC(=O)O)C(=O)O)C(=O)O)C(=O)N[C@@H](CC(N)=O)C(=O)N[C@@H]([C@@H](C)O)C(=O)N[C@@H](C)C(=O)N[C@@H]([C@@H](C)O)C(=O)N1)[C@@H](C)O)C(=O)N[C@@H](CC(C)C)C(=O)N1CCC[C@H]1C(=O)N1CCC[C@H]1C(=O)N[C@H](C(=O)N[C@@H](CCC(=O)O)C(=O)N[C@H](C(=O)NCC(=O)N[C@@H](CO)C(=O)N[C@@H](CC(N)=O)C(=O)N[C@H](C(=O)N[C@@H](Cc1ccc(O)cc1)C(N)=O)[C@@H](C)O)C(C)C)[C@@H](C)O` [Peptide 50, K(γE-γE-C18diacid)[CNTATC]ATQRLANFLRHSS(Aib)NFGPILPPTEVGSNTY-amide] (H-K([γGlu-γGlu-C18 diacid])CNTATCATQRLANFLRHSS[Aib]NFGPILPPTEVGSNTY-NH2; disulfide 2-7; N-terminus assumed), the results for the EC50 in assay [1] and in assay [2] were 18900 pM and 349 pM, respectively. Also, the “Ratio (selectivity hAMYR vs hCTR, ratio of EC50 values at the two receptors)” value in assay [2] turned out to be 54.
The like results for `CC[C@H](C)[C@H](NC(=O)[C@@H]1CCCN1C(=O)CNC(=O)[C@H](Cc1ccccc1)NC(=O)[C@H](CC(N)=O)NC(=O)C(C)(C)NC(=O)[C@H](CO)NC(=O)[C@H](CO)NC(=O)[C@H](Cc1c[nH]cn1)NC(=O)[C@H](CO)NC(=O)[C@H](CC(C)C)NC(=O)[C@H](Cc1ccccc1)NC(=O)[C@H](CC(N)=O)NC(=O)[C@H](C)NC(=O)[C@H](CC(C)C)NC(=O)[C@H](CCCNC(=N)N)NC(=O)[C@H](CCC(N)=O)NC(=O)[C@@H](NC(=O)[C@H](C)NC(=O)[C@@H]1CSSC[C@H](NC(=O)[C@H](CCCCN)NC(=O)[C@@H](N)CCCCNC(=O)CC[C@H](NC(=O)CCCCCCCCCCCCCCCCC(=O)O)C(=O)O)C(=O)N[C@@H](CC(N)=O)C(=O)N[C@@H]([C@@H](C)O)C(=O)N[C@@H](C)C(=O)N[C@@H]([C@@H](C)O)C(=O)N1)[C@@H](C)O)C(=O)N[C@@H](CC(C)C)C(=O)N1CCC[C@H]1C(=O)N1CCC[C@H]1C(=O)N[C@H](C(=O)N[C@@H](Cc1c[nH]cn1)C(=O)N[C@H](C(=O)NCC(=O)N[C@@H](CO)C(=O)N[C@@H](CC(N)=O)C(=O)N[C@H](C(=O)N[C@@H](Cc1ccc(O)cc1)C(N)=O)[C@@H](C)O)C(C)C)[C@@H](C)O` [Peptide 51, K(γE-C18diacid)K[CNTATC]ATQRLANFLSHSS(Aib)NFGPILPPTHVGSNTY-amide] (H-K([γGlu-C18 diacid])KCNTATCATQRLANFLSHSS[Aib]NFGPILPPTHVGSNTY-NH2; disulfide 3-8; N-terminus assumed) were, in that order, 1640 pM, 126 pM and 13.
In the case of `CC[C@H](C)[C@H](NC(=O)[C@@H]1CCCN1C(=O)CNC(=O)[C@H](Cc1ccccc1)NC(=O)[C@H](CC(N)=O)NC(=O)C(C)(C)NC(=O)[C@H](CO)NC(=O)[C@H](CO)NC(=O)[C@H](Cc1c[nH]cn1)NC(=O)[C@H](CO)NC(=O)[C@H](CC(C)C)NC(=O)[C@H](Cc1ccccc1)NC(=O)[C@H](CC(N)=O)NC(=O)[C@H](C)NC(=O)[C@H](CC(C)C)NC(=O)[C@H](CCCNC(=N)N)NC(=O)[C@H](CCC(N)=O)NC(=O)[C@@H](NC(=O)[C@H](C)NC(=O)[C@@H]1CSSC[C@H](NC(=O)[C@H](CCCCN)NC(=O)[C@@H](N)CCCCNC(=O)CC[C@H](NC(=O)CCCCCCCCCCCCCCCCC(=O)O)C(=O)O)C(=O)N[C@@H](CC(N)=O)C(=O)N[C@@H]([C@@H](C)O)C(=O)N[C@@H](C)C(=O)N[C@@H]([C@@H](C)O)C(=O)N1)[C@@H](C)O)C(=O)N[C@@H](CC(C)C)C(=O)N1CCC[C@H]1C(=O)N1CCC[C@H]1C(=O)N[C@H](C(=O)N[C@@H](CCCNC(=N)N)C(=O)N[C@H](C(=O)NCC(=O)N[C@@H](CO)C(=O)N[C@@H](CC(N)=O)C(=O)N[C@H](C(=O)N[C@@H](Cc1ccc(O)cc1)C(N)=O)[C@@H](C)O)C(C)C)[C@@H](C)O` [Peptide 52, K(γE-C18diacid)K[CNTATC]ATQRLANFLSHSS(Aib)NFGPILPPTRVGSNTY-amide] (H-K([γGlu-C18 diacid])KCNTATCATQRLANFLSHSS[Aib]NFGPILPPTRVGSNTY-NH2; disulfide 3-8; N-terminus assumed), the EC50 in assay [1] amounted to 1100 pM. Besides, in assay [2], the “Ratio (selectivity hAMYR vs hCTR, ratio of EC50 values at the two receptors)” value was determined as 12 and the EC50 turned out to be 89 pM.

The values are drawn from patent US20240067693A1, “POLYPEPTIDES AND USES THEREOF” (MEDIMMUNE LIMITED, priority 2020, published 2024).
